# Assay results reported in US20130184302A1, “METHODS FOR TREATING IRRITABLE BOWEL SYNDROME (IBS) AND INFECTIONS” (priority 2011, published 2013).
# How the values were obtained:
# Format in all cases: in vivo, human
# [1] = test system: C. difficile infection (CDI); test: CDI trial: subgroup analysis of diarrhea at TOC; conditions: at TOC
# From the text: Tables 42 and 43 set forth a subgroup analysis of diarrhea at TOC.
# [2] = test system: C. difficile infection (CDI); test: CDI trial: efficacy adjusting for concomitant medication usage
# From the text: Table 48 sets forth the efficacy adjusting for concomitant medication usage.
# [3] = test system: C. difficile infection (CDI); test: CDI trial: number of unformed stools during the treatment period; conditions: during the treatment period; ANOVA model with treatment and center as main effects; Rifaximin N = 117, Vancomycin N = 115
# From the text: FIG. 18 sets for the average number of unformed stools per day of the study.
# [4] = test system: C. difficile infection (CDI); test: CDI trial: enteric symptoms at TOC; conditions: Rifaximin N = 108, Vancomycin N = 111
# From the text: Table 41 sets forth a summary of the enteric symptoms at TOC.
# [5] = test system: C. difficile infection (CDI); test: CDI trial: continuing illnesses; conditions: Rifaximin N = 117, Vancomycin N = 115
# [6] = test system: C. difficile infection (CDI); test: CDI trial rifaximin 400 mg TID vs vancomycin 125 mg QID: clinical success at Test of Cure; conditions: at TOC (Day 14+/−1)
# Description: Criteria for entry into the trial were: • Age>=18 years old; • Had acute diarrhea at screening defined as >=3 unformed stools in the last 24 hours and at least one sign of enteric infection (fever, nausea, lose of appetite, vomiting, severe abdominal pain/discomfort); and • a positive C. diff stool toxin assay
# The primary efficacy endpoint of the study was defined as the proportion of subjects achieving clinical success. Specifically, clinical success was defined as the absence of severe abdominal pain at Test of Cure (TOC), absence of fever (<38° C.) at TOC, and <3 unformed stools for two consecutive days at TOC.
# The non-inferiority margin for the primary endpoint was defined as lower bound of 95% CI of delta above −15%.
# Clinical success was defined as the: Absence of severe abdominal pain at TOC, absence of fever (<38° C.) at TOC, and <3 unformed stools for two consecutive days at TOC. Test of cure defined as Day 14+/−1 day.
# [7] = test system: C. difficile infection (CDI); test: CDI trial: recurrence of CDI, recurrence rate per person-year
# From the text: Recurrence was defined to be a diarrhea and a positive C. diff stool toxin assay that occurred after initial clinical success.
# [8] = test system: C. difficile infection (CDI); test: CDI trial: global cure of diarrhea; conditions: Rifaximin N = 117, Vancomycin N = 115
# From the text: Subjects having a global cure of diarrhea are set for the in Table 45. Global cure of diarrhea was defined as subjects who were cured of diarrhea at TOC without recurrence at follow up.
# [9] = subgroup Age <65, Rifaximin N = 69, Vancomycin N = 62
# [10] = subgroup Age >=65, Rifaximin N = 39, Vancomycin N = 49
# [11] = subgroup Female, Rifaximin N = 68, Vancomycin N = 64
# [12] = subgroup Male, Rifaximin N = 40, Vancomycin N = 47
# [13] = Rifaximin N = 109, Vancomycin N = 112
# [14] = Rifaximin N = 117, Vancomycin N = 115
# [15] = after initial clinical success, Rifaximin N = 67, Vancomycin N = 73
# [16] = all subjects, Rifaximin N = 117, Vancomycin N = 115
# [17] = cured of diarrhea at TOC without recurrence at follow up
smiles,measurement,setting,value
"CN[C@H](CC(C)C)C(=O)N[C@H]1C(=O)N[C@@H](CC(N)=O)C(=O)N[C@H]2C(=O)N[C@H]3C(=O)N[C@H](C(=O)N[C@H](C(=O)O)c4cc(O)cc(O)c4-c4cc3ccc4O)[C@H](O)c3ccc(c(Cl)c3)Oc3cc2cc(c3O[C@@H]2O[C@H](CO)[C@@H](O)[C@H](O)[C@H]2O[C@H]2C[C@](C)(N)[C@H](O)[C@H](C)O2)Oc2ccc(cc2Cl)[C@H]1O [Vancomycin, vancomycin]","Diarrhea, number of subjects",[1]; [9],12
same,"Diarrhea, percent of subjects",[1]; [9],(19%)
same,"No Diarrhea, number of subjects",[1]; [9],50
same,"No Diarrhea, percent of subjects",[1]; [9],(81%)
same,"Diarrhea, number of subjects",[1]; [10],9
same,"Diarrhea, percent of subjects",[1]; [10],(18%)
same,"No Diarrhea, number of subjects",[1]; [10],40
same,"No Diarrhea, percent of subjects",[1]; [10],(82%)
same,"Diarrhea, number of subjects",[1]; [11],11
same,"Diarrhea, percent of subjects",[1]; [11],(17%)
same,"No Diarrhea, number of subjects",[1]; [11],53
same,"No Diarrhea, percent of subjects",[1]; [11],(83%)
same,"Diarrhea, number of subjects",[1]; [12],10
same,"Diarrhea, percent of subjects",[1]; [12],(21%)
same,"No Diarrhea, number of subjects",[1]; [12],37
same,"No Diarrhea, percent of subjects",[1]; [12],(79%)
same,"Diarrhea: No, number of subjects",[2]; [13],82
same,"Diarrhea: No, percent of subjects",[2]; [13],(73%)
same,"Diarrhea: Yes, number of subjects",[2]; [13],30
same,"Diarrhea: Yes, percent of subjects",[2]; [13],(27%)
same,"Clinical Success: No, number of subjects",[2]; [14],46
same,"Clinical Success: No, percent of subjects",[2]; [14],(40%)
same,"Clinical Success: Yes, number of subjects",[2]; [14],69
same,"Clinical Success: Yes, percent of subjects",[2]; [14],(60%)
same,Adjusted mean number of unformed stools-ANOVA,[3],1.90
same,"Diarrhea: No, number of subjects",[4],90
same,"Diarrhea: No, percent of subjects",[4],(81%)
same,"Diarrhea: Yes, number of subjects",[4],21
same,"Diarrhea: Yes, percent of subjects",[4],(19%)
same,"Fever: No, number of subjects",[4],109
same,"Fever: No, percent of subjects",[4],(98%)
same,"Fever: Yes, number of subjects",[4],2
same,"Fever: Yes, percent of subjects",[4],(2%)
same,"Severe Abdominal Pain/Discomfort: No, number of subjects",[4],95
same,"Severe Abdominal Pain/Discomfort: No, percent of subjects",[4],(86%)
same,"Severe Abdominal Pain/Discomfort: Yes, number of subjects",[4],16
same,"Severe Abdominal Pain/Discomfort: Yes, percent of subjects",[4],(14%)
same,"Continuing Illness: No, number of subjects",[5],99
same,"Continuing Illness: No, percent of subjects",[5],(86%)
same,"Continuing Illness: Yes, number of subjects",[5],16
same,"Continuing Illness: Yes, percent of subjects",[5],(14%)
same,"Clinical Success: Yes, number of subjects","[6]; Rifaximin 400 mg TID N = 117, Vancomycin 125 mg QID N = 115",73
same,"Clinical Success: No, number of subjects",[6]; [14],42
same,"Clinical Success: No, percent of subjects",[6]; [14],(37%)
same,"Clinical Success: Yes, percent of subjects",[6]; [14],(64%)
same,"No Recurrence of CDI, number of subjects",[7]; [15],63
same,"No Recurrence of CDI, percent of subjects",[7]; [15],(86%)
same,"Recurrence of CDI, number of subjects",[7]; [15],10
same,"Recurrence of CDI, percent of subjects",[7]; [15],(14%)
same,"Recurrence: No, number of subjects",[7]; [16],105
same,"Recurrence: No, percent of subjects",[7]; [16],(93%)
same,"Recurrence: Yes, number of subjects",[7]; [16],10
same,"Recurrence: Yes, percent of subjects",[7]; [16],(7%)
same,"Global Cure of Diarrhea: No, number of subjects",[8],30
same,"Global Cure of Diarrhea: No, percent of subjects",[8],(26%)
same,"Global Cure of Diarrhea: Yes, number of subjects",[8]; [17],85
same,"Global Cure of Diarrhea: Yes, percent of subjects",[8]; [17],(74%)
